Laboratory results taken from patent US4444776A, “Dipyrido (4,3-B) (3,4-F) indoles, process for obtaining them, therapeutical use and pharmaceutical compositions” (priority 1977, dated 1984).

Assays:
[1] = system: DNA synthesis in HS5 cells; experiment: Test 6: action on DNA synthesis (14C methyl-thymidine incorporation); type: cell-based, hamster; conditions: in the hours following its addition
Protocol: Test 6: Action on the macromolecular syntheses
The action of the compounds according to the invention was studied by the incorporation of precursors marked by radioactive isotopes:
^14 C methyl-thymidine for studying the DNA synthesis
These precursors were given for a period of 30 minutes at varying times after the addition of the product to be tested.
The incorporation is measured after lysis of the cells for 1% of sodium dodecylsulfate and precipitation by 5% of trichloroacetic acid. The […] precipitate was collected on glass fibre Whatman GF/A filters. The filters were dried and counted in a liquid scintillation spectrometer.

replication of the DNA = experiment: Test 6: DNA replication in synchronised cells; type: cell-based; conditions: first minutes following addition
Lewis carcinoma (3LL) = experiment: Test 13: Lewis carcinoma, antimetastasic effect; type: in vivo, BDF1 mice; conditions: for MST: controls 25
Protocol: "carcinome pulmonaire de Lewis" (3LL), K. SUGIURA and C. C. STOCK," Cancer Res. 1955 15 38-51.
In this test, cells (10^6 cells) removed from a tumour-carrying mouse were injected into mice(BDF1) by the IM route. The mice developed, 10 to 15 days after the inoculation, a tumour at the spot where the injection was made. On the other hand, these cells made metastasis in the lung, forming colonies on the pulmonary surface. The antitumoral and antimetastasic effect of a product may therefore be judged on mice thus treated.
Investigation of the antimetastasic effect of the compounds of examples 7 and 8 of the invention
10^6 cells taken from a tumour-carrying mouse were injected by the IM route (left-band paw) into groups of 10 mice and the compounds to be tested were inoculated by the IP route on day J+5 by single or fractioned injection. The mean survival time (MST) and the increased life span (ILS %) were determined.

leukemic cells = experiment: Test 20: combination of compound 21 with other drugs (Table XV); conditions: 10^5 cells, BD 40 20 mg/kg day +4, Endoxan 100 mg/kg day +3
Protocol: A priming dose of endoxan (100 mg/kg) was given 3 days after 10^5 leukemic cells (20 mice).

[2] = 4 injections J+5+6+10+11, 2.5 mg/kg each

Structure (SMILES) | DNA and RNA syntheses [1] | replication of the DNA, initiation and elongation steps (replication of the DNA) | ILS % (Lewis carcinoma (3LL); 1 injection J+5, 10 mg/kg) [%] | MST (Lewis carcinoma (3LL); 1 injection J+5, 10 mg/kg) | ILS % (Lewis carcinoma (3LL); [2]) [%] | MST (Lewis carcinoma (3LL); [2]) | protective action concerning metastasic pulmonary invasion of the lung (Lewis carcinoma (3LL); IP from J+5) | pulmonary metastases counted (Lewis carcinoma (3LL); one mouse sacrificed day J+22, one injection J+5, non-treated mouse 77) | ILS % (leukemic cells; BCNU 2 mg/kg) [%] | Range of death (leukemic cells; BCNU 2 mg/kg immediately after endoxan) | MST (leukemic cells; BCNU 2 mg/kg, control 11.2)
Cc1c2ccncc2c(C)c2c1[nH]c1ccncc12 [Example 1, 5,11-dimethyl dipyrido [4,3-b][3,4-f] indole] | reduces very rapidly | stops, in the first minutes following its addition, the replication of the DNA | – | – | – | – | – | – | – | – | –
CCN(CC)CCCNc1nccc2c(C)c3[nH]c4ccncc4c3cc12 [Example 7, 1-(γ-diethylaminopropyl)amino-5-methyl-dipyrido-[4,3-b][3,4-f] indole] | – | – | 30.8 | 32.7 | 9.6 | 27.4 | give a protective action | 35 | 65.2 | 14-32 | 18.5
